The text below walks through data of a melting point compilation (Tetko et al.; mined from patent text by program, amines drawn as free bases though some values may be those of a salt).

For the compound `CCN(CC)CCOc1ccc(Nc2ncc3c(n2)N(c2cccc(CCN(C)C)c2)C(=O)N(c2ccc(Cl)cc2Cl)C3)cc1`, the melting point worked out at 92 °C.
Next, `CCS(=O)(=O)c1ccc2c(c1)nc(CC(C)(C)C)n2CC1CCCO1` (stereo not drawn): 142 °C; `O=C(c1cc[nH]c1)c1ccc2ccccc2c1`: 134 to 136 °C.
Next, `Cc1cnc(C)c(N(CCN(C)C)C(=O)N(C)C)n1`: 96 to 98 °C.
Under `COc1ccc(C(=O)CN2CCN(c3cccccc3=O)CC2)cc1OC` stands 132 to 135 °C.
`Cc1cc2c(cc1Oc1ccc(C(=O)NNc3ccc4c(C)nn(C)c4n3)o1)C(C)(C)CC(C)C2(C)C` (stereo not drawn) had a melting point of 169 to 170 °C.
Under `Cc1c(Cl)c(Cl)nc2c1NC(=O)c1cccnc1N2C1CC1` stands over 290 °C; under `N#Cc1[nH]c(Br)c(Br)c1-c1ccc(Cl)cc1`, over 250 °C; under `O=C(Nc1cccnc1)N1CCc2ccccc2CC1`, 144 to 146 °C.
Under `CS(=O)(=O)Nc1ccc(-c2nc(C(F)(F)F)c[nH]2)cc1` stands 253 to 255 °C; under `C#Cc1cc([C@@H](C)NC(=O)Nc2ccc(C(C)(C)C)cc2)ccc1NS(C)(=O)=O`, 88.4 to 89.4 °C; under `O=S(=O)(Cl)c1ccc(-c2ccc3c(c2)OCO3)s1`, 117 to 119 °C.
`CCn1nc2c(N)nc3ccccc3c2c1CCCCOC(C)=O`: the melting point lay within 128 to 129 °C.
Under `Cc1ccc2c(c1)Nc1ncccc1NC2=O` stands 286 to 288 °C; under `CNC(=N[N+](=O)[O-])NCc1ccc(Cl)nc1`, 150 to 152 °C.
Next, `NC(=O)OC[C@H]1NC(=O)[C@H]1NC(=O)OCc1ccccc1`: 192 to 193 °C.
Take `CCCN(CCc1c[nH]c2ccc(F)cc12)C1COc2c(F)ccc(C(N)=O)c2C1` (stereo not drawn): the melting point was 125 °C.
`CCCCCCCCCCCCCCCCCC(=O)c1c[nH]c2cc(C(=O)O)ccc12` had a melting point of 268 to 270 °C.
Next, `O=C(O)COc1ccc(/C=C/C(=O)C(F)(F)F)cc1`: 156 °C; `CC(C)(C)OC(=O)CN(Cc1cc(C(F)(F)F)cc(C(F)(F)F)c1)Cc1cc2ccccc2nc1Cl`: 84 °C.
Under `CC(Cc1ccc(O)cn1)NC1CC1` (stereo not drawn) stands 161 °C; under `Clc1ccc2cc(Br)sc2n1`, 116 °C; under `O=C(Nc1ccc(Oc2ccccc2)cc1)N1CCN(c2nccc3ccccc23)CC1`, 122 to 123 °C.
`CCCC(=O)C(=O)[C@H](CC1CCCCC1)NC(=O)[C@H](Cc1cn(S(=O)(=O)c2ccc(C)cc2)cn1)NC(=O)OC(C)(OC)OC` returned a melting point of 60 to 67 °C.
In the case of `CCOC(=O)C(c1ccccc1)n1cccc1` (stereo not drawn), the melting point was 51 to 53 °C.
Under `COCCN1CCc2cc(Nc3ncc(Cl)c(Nc4ccccc4NS(C)(=O)=O)n3)c(OC)cc2CC1` stands 107 to 112 °C; under `O=C(O)CC(NC(=O)C1CCCN2C(=O)CCC(NC(=O)c3ccccc3)C(=O)N12)C(=O)COC(=O)c1c(Cl)cccc1Cl` (stereo not drawn), 126 to 130 °C.
Compound `COc1ccc(C(=O)Nc2ncc(Cl)cc2Cl)c2c1oc1ccccc12` came in with a melting point of 302 °C.
Under `CCC(CC)Nc1cc(C(=O)O)ccc1N1CCCC1=O` stands 178 to 180 °C; under `COC(=O)C1=C2c3sccc3SC(Cl)CN2CC(c2ccccc2)=C1` (stereo not drawn), 192 to 196 °C.
Under `CCCCCCCN(Cc1ccc(CCC(C)C)cc1)C(=O)Nc1c(OC)ccc2ncccc12` stands 86 to 87 °C; under `CCN(CC)CCNC(=O)c1cnc(-c2ccccc2)nc1Cl`, 40 to 45 °C; under `CCN(CC)c1ccc([N+](=O)[O-])c2nnoc12`, 133 to 136 °C.
Next, `O=C1COc2cc(NC(=O)C(=O)N3CCC(Cc4ccccc4)CC3)ccc2N1`: 123 to 126 °C.
In turn, `COc1cn(-c2ccc(N3CC(F)(F)C3)cc2F)nc(-c2ccnn2-c2ccccc2)c1=O` gave a melting point of 204 to 206 °C.
`COc1ccc(OCc2nc(N)c3nccnc3n2)cc1` had a melting point of 238 to 240 °C.
On to `CC(=O)OC1CCCCC1n1c(Br)nc2cc(Cl)c(Cl)cc21` (stereo not drawn), for which the melting point is 167 to 169 °C.
Compound `CCN(C(=O)OC)c1cccc(-c2ccc3nnc(C)n3n2)c1` showed a melting point of 176 to 178 °C.
For `COc1nc2ccc(Br)cc2c2c1Cc1ccccc1-2`, the melting point lay within 150 to 152 °C.
Regarding `COC(=O)c1cccc([N+](=O)[O-])c1-c1ccc2ccccc2c1OC`, the melting point fell in the range of 139 to 141 °C.
Under `COc1ccc(N2CCN(c3ncc(N)cn3)CC2)cc1` stands 157 °C.
Next, `CCCS(=O)(=O)c1c(Cl)cnc(Cl)c1Cl`: 73 to 78 °C; `COc1ccc(-c2ccccc2)cc1NC(=S)c1ncc[nH]1`: 223 to 226 °C.
Under `COC(=O)c1ccccc1S(=O)(=O)NCC(=O)N[C@@H](Cc1ccccc1)C(=O)O` stands 140 to 143 °C; under `COC(=O)c1ccc(/C=C/c2c(OC)cc3c(c2OC)C(C)(C)CCC3(C)C)cc1`, 140 to 142 °C; under `Cc1ncc(CN2CC=C(c3ccc(F)cc3)CC2)c(N)n1`, 176 to 178 °C.
As to `C=CCOc1cc([N+](=O)[O-])ccc1OCC1CO1` (stereo not drawn), the melting point stood at 64 °C.
For the compound `COc1ccc(CS[C@H]2C[C@@H](C(=O)N3CCN(C)CC3)N(C(=O)OCc3ccc([N+](=O)[O-])cc3)C2)cc1`, the melting point was 140 to 141 °C.
With `COc1ccc(CC(=O)O)cc1OC1CCCC1`, the melting point lay within 79 to 80 °C.
Under `COc1c(C(O)c2ncc([N+](=O)[O-])n2C)cc(O)cc1C(C)(C)C` (stereo not drawn) stands 125 to 128 °C; under `COc1ccc(-c2c(Cl)c(CN3C(=O)CCC3=O)nc3sc4c(c23)CCNC4)cc1OC`, 250 to 252 °C.
`O=C(C=Cc1ccc(O)c([N+](=O)[O-])c1)NC12CC3CC(CC(C3)C1)C2`: the melting point lay in the range of 162 to 163 °C.
Under `Cc1noc(C)c1C(=O)Nc1ccc(-n2nc(C3CC3)cc2C2CC2)c(F)c1` stands 166 to 168 °C; under `COC(=O)c1ccc(Sc2ccccc2)cc1Sc1ccccc1`, 124 °C; under `Cc1cccc(COc2cccc(OCc3ccc4cc(F)ccc4n3)c2)c1OCC(=O)O`, 160 to 161 °C.
Next, `O=C(Nc1ccc(N(CCCl)CCCl)cc1)Nc1c2ccccc2nc2ccccc12`: 184 to 186 °C; `O=C1c2ccc(Cl)cc2C(=O)N1c1ccc(Cl)cc1OC(F)(F)F`: 156 to 157 °C.
Under `Cc1nc(N2CCN(Cc3ccc(F)cc3)C2=O)sc1C(N)=O` stands 201 to 203 °C; under `CC(=O)c1ccc(C=C(Cl)Cl)s1`, 81 to 85 °C; under `CC1c2cnc3ccc(O[Si](C)(C)C(C)(C)C)cc3c2C(CO[Si](C)(C)C(C)(C)C)C(O)C1O` (stereo not drawn), 206 to 209 °C.
`CCOC(=O)Cc1[nH]c(C(=O)c2ccccc2)c(C)c1C(=O)O`: the melting point lay within 183 to 185 °C.
Under `COc1ccc2cc(-c3csc(-c4ccccc4)n3)ccc2c1` stands 191 to 193 °C; under `CC1(C)OC(=O)Nc2ccc(-c3cncc(Br)c3)cc21`, 211 to 212 °C.
`CSc1c2ccccc2c(C=O)c2ccccc12` came in with a melting point of 98.5 to 99 °C.
With `Cc1cc(-c2noc(C(F)(F)F)n2)cc(C)c1OCCCc1ccc(Cl)nc1`, the melting point is 89 to 91 °C.
Under `CCCNc1c(C#N)cnn1-c1ccc(OC(F)(F)F)cc1Cl` stands 63 °C; under `CC(=O)Nc1nc(CCN2CCC(c3c[nH]c4ccccc34)CC2)cs1`, 203 to 204 °C.
Next, `Cc1c(O)ccc2oc(-c3ccc(O)cc3)cc12`: 221 to 222 °C; `CC(C)C[C@H](OC(=O)N1CCCCCC1)C(=O)O`: 86 to 88 °C.
Consider `CN1C(=O)C(NC(=O)NC2CCCCC2)N=C(c2ccccc2)c2ccccc21` (stereo not drawn), for which the melting point was in the range of 287 to 288 °C.
Under `Cc1noc(NS(=O)(=O)c2ccccc2-c2cccnc2)c1C` stands 147 to 150 °C; under `COC(=O)c1c(I)cccc1Nc1ccccc1C(=O)O`, 191 to 193 °C.
Under `Cc1cc2c(-c3cccc(/C=C/C(=O)O)c3)c(CC(=O)Nc3ccc(Cl)cc3C(F)(F)F)c(=O)oc2cc1Cl` stands 191 to 194 °C; under `c1ccc(C2Nc3c4c(nc5ccccc35)CCCC4O2)cc1` (stereo not drawn), 225 to 235 °C; under `Cc1ccc(S(=O)(=O)NC(=O)Nc2ccc(Br)c(C)c2)cc1`, 178 to 180 °C.
Next, `CSc1cc(C(C)(C)C)c(O)c(C(=O)O)c1C`: 138 to 139 °C; `COc1ccc2cc(-c3noc(C)n3)c(=O)oc2c1`: 218 to 220 °C; `CN(C)c1ccc(-c2ccccc2C(=O)O)nc1`: 234 to 236 °C.
As for `CC1SC=C2c3ccccc3C=CN2C1=O` (stereo not drawn), the melting point fell in the range of 67 to 68 °C.
Under `CCCCCCCCCCOC(=O)OC(C)OC1=C(C(=O)Nc2ccccn2)N(C)S(=O)(=O)c2ccccc21` (stereo not drawn) stands 84 to 86 °C.
`COc1cc(COc2nn(Cc3ccccc3)cc2C=O)ccc1OCc1nc(-c2ccccc2)oc1C` yielded a melting point of 151 to 152 °C.
Next, `Fc1ccc(-c2nc3ccccc3n3cncc23)cc1`: 214 to 215 °C; `CCOC(=O)CCc1cnc(-c2cc3cccc(N(C)S(=O)(=O)c4cccs4)c3[nH]2)s1`: 126 to 127 °C; `CC(=O)c1ccc(NCc2cc3c(cc2O)CCO3)cc1`: 181 to 183 °C.
Under `Cn1cc(C(=O)C(=O)Oc2c(F)c(F)c(F)c(F)c2F)c2ccccc21` stands 168 to 169 °C; under `Cc1nc(-n2cc(CCc3ccccc3)nn2)sc1C(=O)NCc1cccnc1`, 114 to 116 °C; under `O=C(O)c1ccc2cc(OCCCCCCc3cccc(OCc4ccccc4)c3OCc3ccccc3)ccc2c1`, 66 to 68 °C.
`N#CCCn1c2ccccc2c2cc([N+](=O)[O-])ccc21` yielded a melting point of 225 °C.

Broadly, the melting point is the temperature, or range, at which the solid turns liquid.
